Data taken from publication PMC4268243 (Nuclear medicine and biology, 2014).

Experiments:
[1] = test system: rat orthotopic brain tumor model; conditions: rat orthotopic brain tumor model, 60 min; cited from earlier work
[2] = test system: MDA MB468 tumor xenograft; experiment: Biodistribution in MDA MB468 tumor-bearing SCID mice; type: in vivo
[3] = test system: A549 lung adenocarcinoma cells; experiment: Amino acid uptake and inhibition in A549 cells; type: cell-based, human; conditions: A549, 30 minutes incubation
[4] = test system: SKOV3 estrogen-positive ovarian adenocarcinoma cells; experiment: Amino acid uptake and inhibition in SKOV3 cells; type: cell-based, human; conditions: SKOV3, 30 minutes incubation
[5] = test system: DU145 androgen-independent prostate carcinoma cells; experiment: Amino acid uptake and inhibition in DU145 cells; type: cell-based, human; conditions: DU145, 30 minutes incubation
[6] = test system: U87 tumor xenograft; experiment: Biodistribution in U87 tumor-bearing SCID mice; type: in vivo; conditions: listed as (S)-[^18F]FAMP 1
[7] = test system: MDA MB468 estrogen-independent breast carcinoma cells; experiment: Amino acid uptake and inhibition in MDA MB468 cells; type: cell-based, human; conditions: for Cell uptake: MDA MB468, 30 minutes incubation
[8] = test system: DU145 tumor xenograft; experiment: Biodistribution in DU145 tumor-bearing SCID mice; type: in vivo; conditions: listed as (S)-[^18F]FAMP 1
[9] = test system: U87 glioblastoma cells; experiment: Amino acid uptake and inhibition in U87 cells; type: cell-based, human; conditions: U87, 30 minutes incubation
[10] = 15 min post injection, listed as (S)-[^18F]FAMP 1
[11] = 30 min post injection, listed as (S)-[^18F]FAMP 1
[12] = 60 min post injection, listed as (S)-[^18F]FAMP 1
[13] = 120 min post injection, listed as (S)-[^18F]FAMP 1

For `CC(N)(C[18F])C(=O)O` [(S)-[^18F]1] [2-amino-3-[^18F]fluoro-2-methylpropanoic acid], the brain uptake [1] is given as 0.06±0.01 %ID/g, the uptake in blood [2, 10] is given as 4.2±0.3 %ID/g and the uptake in bone [2, 10] is given as 2.5±0.3 %ID/g. The uptake in brain [2, 10] was 0.6±0.1 %ID/g, the uptake in heart [2, 10] was 3.4±0.3 %ID/g and the uptake in kidney [2, 10] was 39±3.3 %ID/g. For the same molecule, the uptake in liver [2, 10] was 4.8±0.9 %ID/g, the uptake in lung [2, 10] was 4.5±1.3 %ID/g and the uptake in muscle [2, 10] was 3.9±0.7 %ID/g. The uptake in pancreas [2, 10] was 51±10 %ID/g, the uptake in spleen [2, 10] was 14±2.8 %ID/g and the uptake in tumor [2, 10] was 5.8±0.7 %ID/g. For the same molecule, the uptake in blood [2, 11] was 3.6±0.4 %ID/g, the uptake in bone [2, 11] was 2.4±0.6 %ID/g and the uptake in brain [2, 11] was 0.8±0.2 %ID/g. The uptake in heart [2, 11] was 3.2±0.3 %ID/g, the uptake in kidney [2, 11] was 29±6.1 %ID/g and the uptake in liver [2, 11] was 4.7±0.8 %ID/g. The uptake in lung [2, 11] was 4.3±1.9 %ID/g, the uptake in muscle [2, 11] was 3.4±0.4 %ID/g and the uptake in pancreas [2, 11] was 56±7.6 %ID/g. The uptake in spleen [2, 11] was 12±4.2 %ID/g, the uptake in tumor [2, 11] was 6.1±1.4 %ID/g and the uptake in tumor ([2]; 60 min post injection) was 4.8±1.2 %ID/g. For the same molecule, the uptake in blood [2, 12] was 2.9±1.0 %ID/g, the uptake in bone [2, 12] was 2.2±0.6 %ID/g and the uptake in brain [2, 12] was 0.7±0.1 %ID/g. It also gave an uptake in heart [2, 12] of 2.9±0.5 %ID/g, an uptake in kidney [2, 12] of 20±2.7 %ID/g and an uptake in liver [2, 12] of 4.3±0.6 %ID/g. For the same molecule, the uptake in lung [2, 12] was 2.6±0.6 %ID/g, the uptake in muscle [2, 12] was 2.7±0.6 %ID/g and the uptake in pancreas [2, 12] was 46±9.5 %ID/g. It also gave an uptake in spleen [2, 12] of 7.1±0.9 %ID/g, an uptake in blood [2, 13] of 1.5±0.1 %ID/g and an uptake in bone [2, 13] of 1.0±0.6 %ID/g. The uptake in brain [2, 13] was 0.8±0.1 %ID/g, the uptake in heart [2, 13] was 2.0±0.2 %ID/g and the uptake in kidney [2, 13] was 11±1.4 %ID/g. For the same molecule, the uptake in liver [2, 13] was 2.6±0.2 %ID/g, the uptake in lung [2, 13] was 1.6±0.4 %ID/g and the uptake in muscle [2, 13] was 1.3±0.5 %ID/g. The uptake in pancreas [2, 13] was 23±6.8 %ID/g, the uptake in spleen [2, 13] was 5.6±2.2 %ID/g and the uptake in tumor [2, 13] was 5.0±0.4 %ID/g. The Cell uptake ([3]; 10 mM BCH) was 1.5±0.1 % ID/5×10^5 cells, the Cell uptake ([3]; 10 mM MeAIB) was 3.9±0.6 % ID/5×10^5 cells and the Cell uptake ([3]; Control (no inhibitor)) was 4.8±0.7 % ID/5×10^5 cells. For the same molecule, the Cell uptake ([4]; 10 mM BCH) was 1.7±0.1 % ID/5×10^5 cells, the Cell uptake ([4]; 10 mM MeAIB) was 2.9±0.2 % ID/5×10^5 cells and the Cell uptake ([4]; Control (no inhibitor)) was 3.9±0.2 % ID/5×10^5 cells. It also gave a Cell uptake ([5]; 10 mM BCH) of 1.6±0.1 % ID/5×10^5 cells, a Cell uptake ([5]; 10 mM MeAIB) of 3.2±0.4 % ID/5×10^5 cells and a Cell uptake ([5]; Control (no inhibitor)) of 3.6±0.3 % ID/5×10^5 cells. The uptake in blood ([6]; 15 min post injection) was 3.5±0.4 %ID/g, the uptake in bone ([6]; 15 min post injection) was 2.4±0.7 %ID/g and the uptake in brain ([6]; 15 min post injection) was 0.5±0.1 %ID/g. It also gave an uptake in heart ([6]; 15 min post injection) of 3.1±0.4 %ID/g, an uptake in kidney ([6]; 15 min post injection) of 37±4.9 %ID/g and an uptake in liver ([6]; 15 min post injection) of 6.6±2.0 %ID/g. It also gave an uptake in lung ([6]; 15 min post injection) of 4.6±0.6 %ID/g, an uptake in muscle ([6]; 15 min post injection) of 3.3±0.7 %ID/g and an uptake in pancreas ([6]; 15 min post injection) of 48±11 %ID/g. For the same molecule, the uptake in spleen ([6]; 15 min post injection) was 11±2.7 %ID/g, the uptake in tumor ([6]; 15 min post injection) was 6.4±1.3 %ID/g and the uptake in blood ([6]; 30 min post injection) was 3.7±0.7 %ID/g. The uptake in bone ([6]; 30 min post injection) was 2.1±0.5 %ID/g, the uptake in brain ([6]; 30 min post injection) was 0.6±0.1 %ID/g and the uptake in heart ([6]; 30 min post injection) was 3.1±0.4 %ID/g. For the same molecule, the uptake in kidney ([6]; 30 min post injection) was 28±5.2 %ID/g, the uptake in liver ([6]; 30 min post injection) was 6.0±1.0 %ID/g and the uptake in lung ([6]; 30 min post injection) was 3.6±0.5 %ID/g. The uptake in muscle ([6]; 30 min post injection) was 3.3±0.3 %ID/g, the uptake in pancreas ([6]; 30 min post injection) was 50±8.7 %ID/g and the uptake in spleen ([6]; 30 min post injection) was 10±1.0 %ID/g. The uptake in tumor ([6]; 30 min post injection) was 6.8±0.8 %ID/g, the uptake in blood ([6]; 60 min post injection) was 2.1±0.4 %ID/g and the uptake in bone ([6]; 60 min post injection) was 2.0±0.1 %ID/g. The uptake in brain ([6]; 60 min post injection) was 0.6±0.1 %ID/g, the uptake in heart ([6]; 60 min post injection) was 2.8±0.7 %ID/g and the uptake in kidney ([6]; 60 min post injection) was 15±3.3 %ID/g. It also gave an uptake in liver ([6]; 60 min post injection) of 4.4±0.6 %ID/g, an uptake in lung ([6]; 60 min post injection) of 2.6±0.8 %ID/g and an uptake in muscle ([6]; 60 min post injection) of 2.3±0.3 %ID/g. It also gave an uptake in pancreas ([6]; 60 min post injection) of 32±11 %ID/g, an uptake in spleen ([6]; 60 min post injection) of 6.1±1.1 %ID/g and an uptake in tumor ([6]; 60 min post injection) of 4.4±0.8 %ID/g. It also gave an uptake in blood ([6]; 120 min post injection) of 1.2±0.5 %ID/g, an uptake in bone ([6]; 120 min post injection) of 1.0±0.3 %ID/g and an uptake in brain ([6]; 120 min post injection) of 0.7±0.2 %ID/g. The uptake in heart ([6]; 120 min post injection) was 2.1±0.3 %ID/g, the uptake in kidney ([6]; 120 min post injection) was 7.3±1.4 %ID/g and the uptake in liver ([6]; 120 min post injection) was 4.1±1.3 %ID/g. For the same molecule, the uptake in lung ([6]; 120 min post injection) was 1.5±0.4 %ID/g, the uptake in muscle ([6]; 120 min post injection) was 1.3±0.3 %ID/g and the uptake in pancreas ([6]; 120 min post injection) was 18±6.4 %ID/g. It also gave an uptake in spleen ([6]; 120 min post injection) of 3.4±1.1 %ID/g, an uptake in tumor ([6]; 120 min post injection) of 2.8±0.4 %ID/g and a Cell uptake ([7]; 10 mM BCH) of 2.2±0.1 % ID/5×10^5 cells. The Cell uptake ([7]; 10 mM MeAIB) was 3.5±0.2 % ID/5×10^5 cells, the Cell uptake ([7]; Control (no inhibitor)) was 3.4±0.3 % ID/5×10^5 cells and the “inhibition of uptake by MeAIB” value ([7]; MDA MB468 cells, 10 mM MeAIB) was “no significant MeAIB inhibition”. It also gave an uptake in blood ([8]; 15 min post injection) of 5.1±1.1 %ID/g, an uptake in bone ([8]; 15 min post injection) of 2.4±1.1 %ID/g and an uptake in brain ([8]; 15 min post injection) of 0.6±0.1 %ID/g. The uptake in heart ([8]; 15 min post injection) was 3.2±1.2 %ID/g, the uptake in kidney ([8]; 15 min post injection) was 36±5.1 %ID/g and the uptake in liver ([8]; 15 min post injection) was 3.4±0.6 %ID/g. For the same molecule, the uptake in lung ([8]; 15 min post injection) was 6.5±1.5 %ID/g, the uptake in muscle ([8]; 15 min post injection) was 4.0±0.8 %ID/g and the uptake in pancreas ([8]; 15 min post injection) was 55±8.8 %ID/g. The uptake in spleen ([8]; 15 min post injection) was 7.9±2.3 %ID/g, the uptake in tumor ([8]; 15 min post injection) was 3.2±2.5 %ID/g and the uptake in blood ([8]; 30 min post injection) was 2.9±1.1 %ID/g. It also gave an uptake in bone ([8]; 30 min post injection) of 2.2±0.5 %ID/g, an uptake in brain ([8]; 30 min post injection) of 0.5±0.2 %ID/g and an uptake in heart ([8]; 30 min post injection) of 3.2±1.3 %ID/g. For the same molecule, the uptake in kidney ([8]; 30 min post injection) was 21±6.2 %ID/g, the uptake in liver ([8]; 30 min post injection) was 2.9±0.9 %ID/g and the uptake in lung ([8]; 30 min post injection) was 5.0±2.6 %ID/g. For the same molecule, the uptake in muscle ([8]; 30 min post injection) was 2.9±0.2 %ID/g, the uptake in pancreas ([8]; 30 min post injection) was 37±13 %ID/g and the uptake in spleen ([8]; 30 min post injection) was 6.6±1.1 %ID/g. The uptake in tumor ([8]; 30 min post injection) was 1.8±0.4 %ID/g, the uptake in blood ([8]; 60 min post injection) was 2.4±0.04 %ID/g and the uptake in bone ([8]; 60 min post injection) was 2.1±0.2 %ID/g. It also gave an uptake in brain ([8]; 60 min post injection) of 0.6±0.1 %ID/g, an uptake in heart ([8]; 60 min post injection) of 3.5±0.3 %ID/g and an uptake in kidney ([8]; 60 min post injection) of 17±0.6 %ID/g. It also gave an uptake in liver ([8]; 60 min post injection) of 3.3±0.5 %ID/g, an uptake in lung ([8]; 60 min post injection) of 3.4±0.8 %ID/g and an uptake in muscle ([8]; 60 min post injection) of 2.5±0.3 %ID/g. It also gave an uptake in pancreas ([8]; 60 min post injection) of 36±3.1 %ID/g, an uptake in spleen ([8]; 60 min post injection) of 9.2±5.1 %ID/g and an uptake in tumor ([8]; 60 min post injection) of 3.4±1.7 %ID/g. For the same molecule, the uptake in blood ([8]; 120 min post injection) was 1.8±0.4 %ID/g, the uptake in bone ([8]; 120 min post injection) was 1.6±0.4 %ID/g and the uptake in brain ([8]; 120 min post injection) was 0.6±0.1 %ID/g. The uptake in heart ([8]; 120 min post injection) was 3.0±0.7 %ID/g, the uptake in kidney ([8]; 120 min post injection) was 13±1.7 %ID/g and the uptake in liver ([8]; 120 min post injection) was 2.8±0.7 %ID/g. It also gave an uptake in lung ([8]; 120 min post injection) of 3.3±1.1 %ID/g, an uptake in muscle ([8]; 120 min post injection) of 1.7±0.5 %ID/g and an uptake in pancreas ([8]; 120 min post injection) of 28±7.4 %ID/g. For the same molecule, the uptake in spleen ([8]; 120 min post injection) was 5.3±1.8 %ID/g, the uptake in tumor ([8]; 120 min post injection) was 3.5±0.7 %ID/g and the Cell uptake ([9]; 10 mM BCH) was 0.8±0.1 % ID/5×10^5 cells. The Cell uptake ([9]; 10 mM MeAIB) was 1.0±0.04 % ID/5×10^5 cells and the Cell uptake ([9]; Control (no inhibitor)) was 1.5±0.1 % ID/5×10^5 cells.
